In a melting point compilation (Tetko et al.; mined from patent text by program, amines drawn as free bases though some values may be those of a salt):

Row | melting point | Compound
1 | 120 to 126 °C | O=C(N[C@H]1CCC(=O)N2CCC[C@@H](C(=O)O)N2C1=O)OCC1c2ccccc2-c2ccccc21
2 | 174 °C | COc1cc2cc(c1Cl)N(C)C(=O)CC(O)C1(C)OC1C(C)C1CC(O)(NC(=O)O1)C(OC)C=CC=C(C)C2 (configuration not stated)
3 | 190 to 191 °C | CCCCN1CCC(NS(=O)(=O)c2ccc(Nc3ccnc4cc(Cl)ccc34)cc2)CC1
4 | 48 to 50 °C | COC(=O)c1ccc(OC)cc1C(C)=O
5 | 270 to 273 °C | CCc1n[nH]c2cc(-c3nn(C(C)c4oc5ccccc5c(=O)c4-c4cccc(F)c4)c4ncnc(N)c34)ccc12 (configuration not stated)
6 | 267 °C | N=C(N)NCCNc1c(C(=O)O)cnc2ccccc12
7 | 212 to 213 °C | O=C1c2ccccc2C(=O)N1Oc1ccc(-c2nc(=O)c3ccccc3s2)cn1
8 | 80 to 81 °C | COP(=O)(Cc1ccc2ccccc2c1)OC
9 | 146 to 147 °C | N#Cc1ccc(C2C(=O)N(CC3CC3)Cc3cncn32)cc1 (configuration not stated)
10 | 174 to 175 °C | N#CCCNC(=O)c1cccc(-c2cccc3cn(Cc4cccc(C(F)(F)F)c4)nc23)c1
11 | 225 to 227 °C | CCC(C#N)C(=O)Nc1ccc(C2=NNC(=O)CC2C)cc1 (configuration not stated)
12 | 77 to 80 °C | C#CCN(C(=O)CN)C(=O)OC
13 | 151 to 152 °C | COC(=O)CCn1c(=O)n(CCN2CCN(c3ccc(OC)cc3)CC2)c(=O)c2cscc21
14 | 210 to 215 °C | O=C(Nc1cccnc1)N1CCc2cc(I)ccc21
15 | 226 to 227 °C | O=C(O)c1ccc(F)c(F)c1Nc1ccc(I)cc1Cl
16 | 74 to 76 °C | CCOC(=O)CCn1c(=O)n2cc(C)cc2c2ccccc21
17 | > 250 °C | O=C1CC(c2cccc(-n3ccnn3)c2)=Nc2cc(O)c(-c3ccc(F)cc3)cc2N1
18 | 149 to 151 °C | CC(C)(C)c1cc(C2=NOC(CC(=O)Nc3ccc([N+](=O)[O-])cc3)C2)cc(C(C)(C)C)c1O (configuration not stated)
19 | 153 to 155 °C | O=S(=O)(Cc1ccccc1)c1c[nH]c2ccccc12
20 | 95 to 96 °C | C=CCNC(=O)CCNc1nc(NCC=C)nc2c(C)csc12
21 | 87 to 93 °C | O=[N+]([O-])c1ccc(Oc2ccc(C(F)(F)F)cc2Cl)nc1O
22 | 188 °C | Cc1cc2c(=O)n(CCN3CCC(Nc4nc5ccccc5n4Cc4ccc(F)cc4)CC3)c(=O)[nH]c2s1
23 | 194 to 195 °C | CNc1cccc2c1nc(-c1c(F)cccc1F)n2Cc1c(F)cccc1F

Row | melting point | Compound
24 | 151 to 152 °C | COc1nccc(C)c1NC(=O)c1cccnc1NC1CC1
25 | 144 to 146 °C | CCC1SC(N(C)C(=O)NC)=NN1C(=O)C(C)(C)C (configuration not stated)
26 | 78.2 to 79 °C | CCCCCCCCCCCCCCCCOCC(O)CN(CC(O)COCC(O)CO)C(=O)CCCCCCCCCCCCCCC (configuration not stated)
27 | 120 °C | Cc1nc2c(O)c(C(=O)[C@H](O)[C@@H](O)c3ccccc3)ccc2n1C1CC1
28 | 134 to 136 °C | CC(=O)N(C)c1cc([N+](=O)[O-])cc([N+](=O)[O-])c1
29 | 70 °C | CCCCCCCCCCCNC(=O)NCCCC
30 | 146 to 147 °C | Cc1ccc(S(=O)(=O)N2CC(O)CC2C(=O)O)cc1 (configuration not stated)
31 | 38 to 39 °C | CCCc1ccc(CCCOc2c(C)cc(-c3nnn(C)n3)cc2C)o1
32 | 208 to 209 °C | Cc1cc(-c2nnc3c4ccccc4c(OCc4cn(C)cn4)nn23)no1
33 | 215 to 217 °C | CSc1sc(C(=O)O)c2c1-c1sc(-c3ccccc3)cc1CC2
34 | 220 to 221 °C | CCCc1nc2cccc(C(O)=S)c2n1Cc1ccc(-c2ccccc2-c2nc(=O)o[nH]2)cc1
35 | 99 to 101 °C | CC(=O)Oc1cc(-n2c(=O)cc(C(F)(F)F)n(C)c2=O)c(F)cc1Cl
36 | 101 to 103 °C | CCCc1cc2cccc(C(=O)OCOC(=O)C(C)(C)C)c2n1Cc1ccc(-c2ccccc2-c2nnn[nH]2)cc1
37 | 110 to 111 °C | COC(=O)C1COc2c(C(=O)c3ccccc3)cc(C)cc21 (configuration not stated)
38 | 92 to 94 °C | NCCC(O)c1ccccc1 (configuration not stated)
39 | 162 to 165 °C | Cc1ccc(O)c(C)c1N(C)C
40 | 99 to 101 °C | Nc1ccccc1C(=O)c1ccc(OCc2ccccc2)cc1
41 | 149 to 150 °C | COc1cc(Nc2ncc(N)c(-c3ccccc3)n2)cc(OC)c1OC
42 | 145 to 146 °C | c1ccc(COc2ccc(Cn3cnc4c(-c5ccco5)ncnc43)cc2)cc1
43 | 150 to 153 °C | NC(=O)c1n[nH]c(S(=O)(=O)c2ccccc2)n1
44 | 173 to 174 °C | Cc1nnc(-c2ccc3occ(-c4ccc(S(=O)CF)cc4)c3c2)o1 (configuration not stated)
45 | 153 °C | CC1(O)ON=C(c2ccc(Br)cc2)C1c1ccccc1 (configuration not stated)
46 | 106 °C | CCCCCCCCCCCCCCCCOC(=O)C=CC(=O)NC(N)=O

Row | melting point | Compound
47 | 232 to 234 °C | COc1cc2c(cc1-c1cccc(F)n1)-c1c(-c3cncs3)c3c(n1CC2)C(=O)N(C(C)(C)C)CCOC3
48 | 155 to 157 °C | CCOC(=O)c1c(OC)c2ccccc2c2nc3ccccc3nc12
49 | 133 to 135 °C | Cc1c(NC(=O)c2ccc(-c3ccccc3F)cc2)ccc2cc(CN3CCCC3)cnc12
50 | 136 to 137 °C | CCS(=O)(=O)N(C)C1c2cc(Cl)cc(Cl)c2OC(C)(C)C1OC(C)=O (configuration not stated)
51 | 125 to 128 °C | COc1ccc(-c2nc(CCl)cs2)cc1
52 | 229 to 230 °C | NS(=O)(=O)c1ccc(C2CCNCC2)cc1
53 | 101 to 102 °C | COc1cc(CCC(=O)CC(=O)c2ccc3ccccc3c2)ccc1O
54 | 78 to 79 °C | N#Cc1nc(F)c(Cl)c(F)c1Cl
55 | 212 °C | Cc1ccccc1-c1nc2c(o1)C(=O)c1ccccc1C2=O
56 | 152 to 154 °C | CC(C)CC1(CCCCN2CCN(c3cccc4c3OCCO4)CC2)C(=O)Nc2ccccc21 (configuration not stated)
57 | 130 to 133 °C | Cc1ccc(C(=O)N(C)C)cc1-c1nc(NCCNC(C)C)nc2c1CNC(=O)N2c1c(F)cccc1F
58 | 91 to 92 °C | Cc1nc(C(O)(c2nc(C)c(C)s2)C(C)(C)C)sc1C
59 | 147 to 149 °C | N#Cc1ccc(Cn2nc(-c3ccccc3O)nc2-c2ccccc2O)cc1
60 | 80 to 82 °C | CC(C)(C=O)N1C(=O)c2ccccc2C1=O
61 | 204 to 208 °C | Oc1ccc(N=C2SCCS2)cc1
62 | 154 to 155 °C | COc1ccc(-c2nn(Cc3ccccc3)c(=O)cc2-c2ccncc2)cc1
63 | 62.4 to 72.2 °C | CS(=O)(=O)c1ccc(-n2nc(CCCN3C(=O)c4ccccc4C3=O)cc2-c2ccccc2)cc1
64 | 219 to 221 °C | Cc1nc(N)c2nc(C)n(CCNC(=O)N3CCOCC3)c2c1C
65 | 141 to 142 °C | O=C(O)C1CC(=S)N(c2cc(C(F)(F)F)cc(C(F)(F)F)c2)C1 (configuration not stated)
66 | 229 to 230 °C | COc1cc2[nH]c(=O)nc(C)c2c(OC)c1OC
67 | 140 to 150 °C | CCCCc1nc(SC)c(C(C)(O)C(=O)O)n1Cc1ccc(-c2ccccc2S(=O)(=O)NC(=O)OCc2ccccc2)cc1 (configuration not stated)
68 | 113 to 114 °C | COc1c(CS(=O)(=O)C2=NOC(C)(C)C2)c(C(F)(F)F)nn1C
69 | 74 °C | Cc1cccc(-c2nc3ccc(OCCCN(C)C)cc3n2Cc2ccccc2C(F)(F)F)c1

Row | melting point | Compound
70 | 171 °C | CC(C)(C)c1ccc(C(=O)c2ccc3n2Cc2ccccc2N(C(=O)COc2ccc(Cl)cc2)C3)cc1
71 | 256 to 258 °C | CC(=O)NC[C@H]1CN(c2ccc(C(=O)c3cnc4cc(-c5ccccc5)ccn34)cc2)C(=O)O1
72 | 235 to 237 °C | Oc1ccc2c(c1)COc1c-2cc2ccc(O)cc2c1-c1ccc(F)c(F)c1
73 | 160 °C | COc1ccc(CN(C)CCCc2ccc(NC(=O)c3cccc4c(=O)c5cc(F)ccc5sc34)cc2)cc1OC
74 | 99 to 102 °C | COc1ccc(-c2ccc(-c3ccc(OC)cc3)c(-c3ccc(OCc4ccccc4)cc3)n2)cc1
75 | 95 to 97 °C | CNc1nc(-c2cccc(CCc3ccccc3)c2)c2cc(OC)c(OC)cc2n1
76 | 165 °C | C[C@H](O)CN1CCN(c2ccc(Nc3ncc4ccc(-c5ccccc5N(C)S(C)(=O)=O)n4n3)cc2F)CC1
77 | 153 to 154 °C | COc1ccccc1-n1ccc(=O)c(-c2ccnn2-c2ccccc2)n1
78 | > 260 °C | NC(=O)Cc1ccc2c(c1)Cc1c-2[nH]c(=O)c2nccn12
79 | 204 to 206 °C | C[C@@H]1S[C@@H](C(=O)Nc2ccc(CN3CCSCC3)cc2)Cc2cc3c(cc2C1=O)OCO3
80 | 258 °C | Cn1cncc1C(N)(c1ccc([N+](=O)[O-])cc1)c1ccc2c(c1)c(-c1cccc(Cl)c1)cc(=O)n2C (configuration not stated)
81 | 179 to 181 °C | O=C(CC(=O)c1ccc(O)cc1O)c1cc(OCc2ccccc2)cc(OCc2ccccc2)c1
82 | 110 °C | CC(C)NCC(O)COc1cccnc1N (configuration not stated)
83 | 119 to 120 °C | CNS(=O)(=O)c1cc(C(=O)NNC(=O)c2occ(-c3ccccc3)c2-c2ccccc2)ccc1O
84 | 123 to 124 °C | O=C(N[C@@H]1C[C@H]1c1ccccc1)c1ccc2cnccc2n1 (relative stereo)
85 | 62 to 64 °C | COC(Cc1ccc(I)cc1)c1ccc(I)cc1 (configuration not stated)
86 | 91.8 to 92.3 °C | COC(=O)c1cccc(OS(=O)(=O)C(F)(F)F)c1O
87 | 124 to 125 °C | Cc1cnc(CNC(=O)CCc2cnoc2-c2ccc(Cl)cc2)cn1
88 | 205 to 207 °C | CCCCOc1nc(N)c2nc(OC)n(CCSc3cccc(CC(=O)O)c3)c2n1
89 | 198 to 200 °C | COc1cc(OC)c2c(=O)c(OCCCOc3ccc(C(C)=C4SC(=O)NC4=O)cc3)c(-c3ccc(OC)c(OC)c3)oc2c1
90 | 93 °C | OCCCCCCCCCCCCCCCCCCCCO
91 | 66 °C | O=C1C=CC(O)(c2nc3ccccc3s2)C(Sc2ccccc2)C1 (configuration not stated)
92 | 49 to 51 °C | CC(=O)[C@@H]1CC(=S)N(C(C)=O)C1

Row | Compound | melting point
93 | CN(C(=O)c1cc2ccccc2[nH]1)C1N=C(c2ccccc2)c2ccccc2NC1=O (racemic) | 287 to 288 °C
94 | CC(=O)NCC(=O)NCC(=O)N1CC1C#N (configuration not stated) | 70 to 76 °C
95 | Cc1ccc(C)n1-c1c(SC(F)(F)F)c(C#N)nn1-c1c(Cl)cc(C(F)(F)F)cc1Cl | 142 to 144 °C
96 | O=C1NC(=S)NC(=O)C1=Cc1cc(Br)cs1 | 230 °C
97 | CN1Cc2c(Br)ncn2-c2ccc(F)cc2C1=O | 200 °C
